Where a name gives a salt, the structure may show the parent alone.
Tests used:
[1] = target: T1, OR51E1 olfactory receptor (Homo sapiens, UniProt Q8TCB6, K299R); test: Butyric acid olfactory receptor antagonist cell-based inhibitory dose-response assay
T1 construct: expressed in transfected cells
T1 sequence (Q8TCB6 2-318 K299R limits assumed): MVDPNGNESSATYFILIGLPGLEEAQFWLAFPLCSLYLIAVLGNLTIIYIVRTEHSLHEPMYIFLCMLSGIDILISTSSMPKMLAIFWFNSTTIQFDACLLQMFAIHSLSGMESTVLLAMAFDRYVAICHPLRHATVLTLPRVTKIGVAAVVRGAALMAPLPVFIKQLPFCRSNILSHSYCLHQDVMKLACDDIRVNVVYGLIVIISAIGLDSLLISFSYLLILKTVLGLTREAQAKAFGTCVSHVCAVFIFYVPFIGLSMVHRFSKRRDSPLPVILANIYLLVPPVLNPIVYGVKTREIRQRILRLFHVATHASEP

[2] = test system: T2, OR11A1 or OR2M3 olfactory receptor; test: Geonol olfactory receptor antagonist cell-based inhibitory dose-response assay; parameters: species or system human; conditions: Table 2; geonol induced receptor activity, geonol at EC50
T2 construct: fused on or other part: Possibly N-terminal FLAG, Rho and/or Lucy tags

human sensory panel = test: Sensory evaluation of geonol earthy/moss odor in binary mixtures with antagonists; format: in vivo; conditions: percentage of geonol malodor (earthy/moss odor) remaining in binary iso-intense mixture vs REF; * = statistically different from geonol alone
Text: Sensory Evaluation: Five 16 oz glass jars containing either REF (geonol only), geonol only control, antagonist only, mixture of geonol and isointense antagonist, or mixture of geonol and low intensity antagonist were presented to the panelists (last four samples were randomized across panelists). The panelists were asked to familiarize themselves with the earthy/moss odor quality from the REF jar first, then rate the pleasantness, earthy/moss odor intensity and overall odor intensity of the next four samples on a 0-10 linear scale. The inter-stimulus interval between the samples was two minutes to avoid adaptation.

[3] = Table 4, butyric acid at single activating concentration (EC94)
[4] = Table 5, agonist concentration not given
[5] = Table 5, butyric acid olfactory receptor antagonists, agonist concentration not given

Compound | IC50 [1, 3] | Inhibition (%) ([1]; Table 4, butyric acid at EC94) | also measured
CC(=O)O[C@H]([C@H]1CCCC[C@@H]1C)C(C)(C)C (racemic) [[(1~{R})-2,2-dimethyl-1-[(1~{S},2~{S})-2-methylcyclohexyl]propyl] acetate] | 170 µM |  | 
C[C@H]1CCCC2(CCCC[C@@H]2C)[C@@H]1O (single isomer, unassigned) [(4~{S},5~{R},6~{S},11~{S})-4,11-dimethylspiro[5.5]undecan-5-ol] | 76.9 µM | 54% | 
C=C1C(C)(C)CCCC12CC1(C)OC1(C)C2 (stereo not drawn) [1,1′,1′,5-tetramethyl-2′-methylidenespiro[6-oxabicyclo[3.1.0]hexane-3,3′-cyclohexane]] | 75.7 µM | 37% | 
CC(=O)C1(C)CC(C)C23CCC(CC12)C3 (stereo not drawn) [1-(2,4-dimethyl-4-tricyclo[5.2.1.0^{1,5}]decanyl)ethanone] |  |  | Inhibition (%) [1, 4]: 26%; IC50 [1, 5]: 60.5 µM
CC(=O)OC(C)C1(C)CC(C)C23CCC(CC12)C3 (stereo not drawn) [1-(2,4-dimethyl-4-tricyclo[5.2.1.0^{1,5}]decanyl)ethyl acetate] |  |  | Inhibition (%) [1, 4]: 34%; IC50 [1, 5]: 54.8 µM
CC1C=CCC(C)C1C(O)C(C)(C)C (stereo not drawn) [1-(2,6-dimethylcyclohex-3-en-1-yl)-2,2-dimethylpropan-1-ol] | 321 µM | 31% | 
CC(=O)OC(C)C1CC(C)C23CCC(CC12)C3 (stereo not drawn) [1-(2-methyl-4-tricyclo[5.2.1.0^{1,5}]decanyl)ethyl acetate] |  |  | Inhibition (%) [1, 4]: 23%; IC50 [1, 5]: 97 µM
CC(=O)[C@@]1(C)C(C)[C@H](C)[C@@]23CC[C@H](CC12)C3 (stereo partly drawn) [1-[(1~{S},2~{S},4~{S},7~{R})-2,3,4-trimethyl-4-tricyclo[5.2.1.0^{1,5}]decanyl]ethanone] |  |  | IC50 [1, 5]: 32.6 µM
C=CCC1(OC)C(C)CCCC1C (stereo not drawn) [1-methoxy-2,6-dimethyl-1-prop-2-enylcyclohexane] | 100 µM | 61% | 
C=C(C)CC1(CC(=C)C)CCC(C)(C)C1O (stereo not drawn) [2,2-dimethyl-5,5-bis(2-methylprop-2-enyl)cyclopentan-1-ol] | 35.1 µM | 119% | 
C=C(C)CC1(CC(=C)C)CCC(C)(C)C1=O [2,2-dimethyl-5,5-bis(2-methylprop-2-enyl)cyclopentan-1-one] | 51.7 µM | 82% | 
C=C(C)CC1(CC(=C)C)CCCC(C)(C)C1O (stereo not drawn) [2,2-dimethyl-6,6-bis(2-methylprop-2-enyl)cyclohexan-1-ol] | 125 µM | 110% | 
C=C(C)CC1(CC(=C)C)CCCC(C)(C)C1=O [2,2-dimethyl-6,6-bis(2-methylprop-2-enyl)cyclohexan-1-one] | 46.6 µM | 103% | 
CC1C(C)C23CCC(CC2C1(C)C=O)C3 (stereo not drawn) [2,3,4-trimethyltricyclo[5.2.1.0^{1,5}]decane-4-carbaldehyde] |  |  | Inhibition (%) [1, 4]: 28%; IC50 [1, 5]: 270 µM
CC1=C(C)CC2(CCC(C)(C)C2=O)C1 [2,3,8,8-tetramethylspiro[4.4]non-2-en-9-one] | 198 µM | 10% | 
CC1=C(C)CC2(CCCC(C)(C)C2O)C1 (stereo not drawn) [2,3,9,9-tetramethylspiro[4.5]dec-2-en-10-ol] | 78.7 µM | 16% | 
CC1CC2(CCCC(C)(C)C2O)CC1C (stereo not drawn) [2,3,9,9-tetramethylspiro[4.5]decan-10-ol] | 120 µM | 12% | 
CC1=CC(C)C2(CCCC(C)(C)C2O)C1 (stereo not drawn) [2,4,9,9-tetramethylspiro[4.5]dec-2-en-10-ol] | 81.6 µM | 22% | 
CC1=CC(C)C2(CCCC(C)(C)C2=O)C1 (stereo not drawn) [2,4,9,9-tetramethylspiro[4.5]dec-2-en-10-one] | 110 µM | 63% | 
C=CCC1(C(C)C=C)CCCC(C)(C)C1=O (stereo not drawn) [2-but-3-en-2-yl-6,6-dimethyl-2-prop-2-enylcyclohexan-1-one] | 76.4 µM | 115% | 
CC1=CCC2(CCCCC2O)C(C(C)C)C1 (stereo not drawn) [3-methyl-5-propan-2-ylspiro[5.5]undec-2-en-11-ol] | 366 µM | 144% | 
CC1C=CCC12CCCC(C)(C)C2=O (stereo not drawn) [4,9,9-trimethylspiro[4.5]dec-2-en-10-one] | 268 µM | 102% | 
COC1C(C)(C)CCC12CCCC2 (stereo not drawn) [4-methoxy-3,3-dimethylspiro[4.4]nonane] | 337 µM | 105% | 
CC1(C)CCCC2(CC=CC2)C1O (stereo not drawn) [9,9-dimethylspiro[4.5]dec-2-en-10-ol] | 44.1 µM | 91% | 
CC1(C)CCCC2(CC=CC2)C1=O [9,9-dimethylspiro[4.5]dec-2-en-10-one] | 135 µM | 23% | 

Compound | IC50 [1, 3] | Inhibition (%) ([1]; Table 4, butyric acid at EC94) | also measured
COC1C(C)(C)CCC12CC=CC2 (stereo not drawn) [9-methoxy-8,8-dimethylspiro[4.4]non-2-ene] | 238 µM | 100% | 
COC1C(C)(C)CCCC12CC=CC2 (stereo not drawn) [10-methoxy-9,9-dimethylspiro[4.5]dec-2-ene] | 120 µM | 33% | 
CC1CCCCC12CCCCC2O (stereo not drawn) [11-methylspiro[5.5]undecan-5-ol] | 68.8 µM | 52% | 
CC(=O)OC1C(C)(C)CCCC12C(C)C=CCC2C (stereo not drawn) [(1,5,10,10-tetramethylspiro[5.5]undec-3-en-11-yl) acetate] | 72.3 µM | 72% | 
CC(=O)OC1C(C)(C)CCCC12CC(C)(C)C(C)(C)C2 (stereo not drawn) [(2,2,3,3,9,9-hexamethylspiro[4.5]decan-10-yl) acetate] | 425 µM | 39% | 
CC(=O)OCC1(C)C(C)C(C)C23CCC(CC12)C3 (stereo not drawn) [(2,3,4-trimethyl-4-tricyclo[5.2.1.0^{1,5}]decanyl)methyl acetate] |  |  | Inhibition (%) [1, 4]: 27%; IC50 [1, 5]: 60.8 µM
CC(=O)OC1C(C)(C)CCCC12CC(C)=C(C)C2 (stereo not drawn) [(2,3,9,9-tetramethylspiro[4.5]dec-2-en-10-yl) acetate] | > 600 µM | 116% | 
CC1=C(C)CC2(CCCC(C)(C)C2OC=O)C1 (stereo not drawn) [(2,3,9,9-tetramethylspiro[4.5]dec-2-en-10-yl) formate] | 25.9 µM | 69% | 
CC(=O)OC1C(C)(C)CCCC12CC(C)C(C)C2 (stereo not drawn) [(2,3,9,9-tetramethylspiro[4.5]decan-10-yl) acetate] | 51.4 µM | 62% | 
CC(=O)OC1C(C)(C)CCCC12CC(C)=CC2C (stereo not drawn) [(2,4,9,9-tetramethylspiro[4.5]dec-2-en-10-yl) acetate] | 34.8 µM | 131% | 
CC(=O)OC1C(C)(C)CCCC12CC=C(C)CC2C (stereo not drawn) [(3,5,10,10-tetramethylspiro[5.5]undec-2-en-11-yl) acetate] | 71.4 µM | 104% | 
CC(=O)OC1C(C)(C)CCCC12CC=CC2C (stereo not drawn) [(4,9,9-trimethylspiro[4.5]dec-2-en-10-yl) acetate] | 48.5 µM | 106% | 
CC1CC=CCC12CCCC(C)(C)C2OC=O (stereo not drawn) [(5,10,10-trimethylspiro[5.5]undec-2-en-11-yl) formate] | 44.4 µM | 129% | 
CC(=O)OC1C(C)(C)CCC12CC=CC2 (stereo not drawn) [(8,8-dimethylspiro[4.4]non-2-en-9-yl) acetate] | 488 µM | 107% | 
CC(=O)OC1C(C)(C)CCCC12CC=CC2 (stereo not drawn) [(9,9-dimethylspiro[4.5]dec-2-en-10-yl) acetate] | 90.3 µM | 32% | 
CC(=O)OC(C1C(C)C=C(C)CC1C)C(C)(C)C (stereo not drawn) [[2,2-dimethyl-1-(2,4,6-trimethylcyclohex-3-en-l-yl)propyl] acetate] | 52.6 µM | 89% | 
CC(=O)OC(C1C(C)CC(C)CC1C)C(C)(C)C (stereo not drawn) [[2,2-dimethyl-1-(2,4,6-trimethylcyclohexyl)propyl] acetate] | 242 µM | 101% | 
CCCCCC/C=C/C=O [nonylenic aldehyde] |  |  | % Inhibition [2]: 30%
CC(=O)OCCc1ccccc1 [phenyl ethyl acetate] |  |  | % Remaining in human sensory tests (human sensory panel): 47* %
OCCc1ccccc1 [phenylethylol] |  |  | % Remaining in human sensory tests (human sensory panel): 58%
CC(=NO)C1(C)C(C)C(C)[C@]23CC[C@H](CC12)C3 (stereo partly drawn) [~{N}-[1-[(1~{R},7~{R})-2,3,4-trimethyl-4-tricyclo[5.2.1.0^{1,5}]decanyl]ethylidene]hydroxylamine] |  |  | IC50 [1, 5]: 79.7 µM
CC(=NO)C1C(C)C(C)C23CCC(CC12)C3 (stereo not drawn) [~{N}-[1-[(1~{S},7~{R})-2,3-dimethyl-4-tricyclo[5.2.1.0^{1,5}]decanyl]ethylidene]hydroxylamine] |  |  | Inhibition (%) [1, 4]: 19%; IC50 [1, 5]: 76.6 µM
CC1CC(C)(C=NO)C2C[C@H]3CC[C@]12C3 (stereo partly drawn) [~{N}-[[(1~{S},7~{R})-2,4-dimethyl-4-tricyclo[5.2.1.0^{1,5}]decanyl]methylidene]hydroxylamine] |  |  | IC50 [1, 5]: 88.5 µM
isopropyl quinoline |  |  | % Remaining in human sensory tests (human sensory panel): 110%

Reference: patent US20250327793A1, “METHODS OF IDENTIFYING COMPOUNDS THAT MODULATE LAUNDRY MALODOR, MOLDY MALODOR, OR SWEAT MALODOR” (Firmenich SA, priority 2017, published 2025)
